Test results published in article PMC5838106, “Cathelicidin promotes inflammation by enabling binding of self-RNA to cell surface scavenger receptors” (Scientific Reports, 2018).
Where no end group is shown, it is not given here.

Columns and labels:
SR-B1 = target: T1, SR-B1 (Homo sapiens, UniProt Q8WTV0); assay: Proximity ligation assay for SR-B1 and U1 RNA; type: cell-based; conditions: NHEKs, peptide 2.5 μM 10 minutes, biotinylated U1 RNA 2.5 μg/mL, 4 °C, 1 hour
T1 construct: endogenous in cells; host or cells: NHEK (primary neonatal human epidermal keratinocytes)
T1 sequence (Q8WTV0 1-509 isoform Q8WTV0-2): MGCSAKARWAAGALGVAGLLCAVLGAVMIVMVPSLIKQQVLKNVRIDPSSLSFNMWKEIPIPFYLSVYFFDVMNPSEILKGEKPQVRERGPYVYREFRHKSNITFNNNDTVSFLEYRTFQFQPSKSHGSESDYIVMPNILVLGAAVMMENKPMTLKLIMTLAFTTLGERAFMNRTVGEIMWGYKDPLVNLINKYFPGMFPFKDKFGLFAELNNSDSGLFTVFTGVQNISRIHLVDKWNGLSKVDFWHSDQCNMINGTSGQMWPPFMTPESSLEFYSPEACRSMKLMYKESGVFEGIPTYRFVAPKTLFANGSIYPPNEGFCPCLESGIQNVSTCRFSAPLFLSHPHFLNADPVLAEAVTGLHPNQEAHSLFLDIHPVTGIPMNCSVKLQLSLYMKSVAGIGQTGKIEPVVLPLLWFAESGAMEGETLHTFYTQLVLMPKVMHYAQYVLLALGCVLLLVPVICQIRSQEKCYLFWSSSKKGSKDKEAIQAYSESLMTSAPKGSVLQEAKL
Description: Figure 3 Cathelicidin enables dsRNA to associate with scavenger receptors. (a) Proximity ligation assay for SR-B1 and U1 RNA. NHEKs were cultured with various cathelicidin peptides (2.5 μM) for 10 minutes, then with biotinylated U1 RNA (2.5 μg/mL) at 4 °C for 1 hour before physical proximity of SR-B1 and U1 RNA was determined using a fluorescence-based PLA that produces a red fluorescent signal. Nuclei (blue) are counterstained with DAPI. Scale bar represents 10 μm. (b) Signal count of (a) in 5 visual fields. (c) Proximity ligation assay as in (a) but reaction is detecting proximity of LL37 and SR-A6. Scale bar represents 100 μm. (d) Signal count of proximity ligation assay performed as in (a), but between U1 RNA and the indicated scavenger receptors, each count is PLA complexes observed in 5 visual fields. (e) Skin sections from healthy subject (control), or lesional skin from a psoriasis patient (Psoriasis) were fixed and PLA performed for LL37 and SR-B1. […]
NHEKs seeded into 8 chamber slides (Thermo Fisher Scientific) were incubated with various combination of U1 RNA, poly(I:C), cathelicidin peptides, and fucoidan for 1 hour at 4 °C allowing binding, but not internalization. […] Fluorescent PLA signals were evaluated using fluorescence microscopy (described above). Signals are counted by Duolink ImageTool software version 1.0.1.2 (Sigma-aldrich).

THP1 cells = assay: Cytokine expression in PMA-treated THP1 cells stimulated with cathelicidin peptide and U1 RNA; type: cell-based, human; conditions: PMA-treated THP1, peptide 3 μM 10 minutes, then U1 RNA 12.5 μg/mL overnight; n = 3
Description: Figure 1 Inflammatory activity of cathelicidin can be dissociated from antimicrobial function (a) Transcriptomic analysis by RNASeq of primary cultures of normal human epidermal keratinocytes (NHEKs) treated with LL37 (2.5 μM) with or without U1 RNA (2.5 μg/mL) for 24 hours. Shown are gene sets induced > 2 fold over vehicle, and after treatment with LL37, U1 RNA, or the combination of LL37 + U1 RNA. (b) Gene Ontology analysis of gene sets from (a). The number of genes related to each biological process is indicated in parentheses. (c) Amino acid sequence of synthetic cathelicidin peptides used in this study. (d) Antimicrobial assay of cathelicidin peptides against group A streptococcus (GAS). GAS were incubated with various concentrations of each peptide (0–25 μM) for 6 hours, then surviving colonies counted after plating on Todd Hewitt Broth gel. (e) IFN-β1 mRNA abundance and (f) IL-6 mRNA abundance in NHEKs after treatment with cathelicidin peptides (2.5 μM) for 10 minutes, then stimulated with U1 RNA (2.5 μg/mL) for a further 6 hours. (n = 3). (g) IFN-β1 mRNA abundance and (h) IL-6 mRNA abundance in […] (PMA)-treated THP1 cells after treatment with cathelicidin peptides (3 μM) for 10 minutes, then stimulated with U1 RNA (12.5 μg/mL) overnight. (n = 3). Data presented are from one representative experiment of at least two independent experiments. Error bars are SEM of three biological replicates. *P < 0.05, **P < 0.01, ***P < 0.001 by two-way ANOVA with Bonferroni’s post-hoc test. See also Fig. S1.
Primary neonatal human epidermal keratinocytes (NHEKs) was purchased from ThermoFisher Scientific. NHEKs were grown in serum free EpiLife medium supplemented with 0.06 mM CaCl2, EpiLife Defined growth supplements (EDGS) (ThermoFisher Scientific) and antibiotics, and passage 3–5 cells were used for experiment. Cells at 60–80% confluence were starved overnight without EDGS prior to treatment. THP1 was purchased from American Type Culture Collection (ATCC) (Manassas, VA). THP1 was cultured in RPMI-1640 (Sigma) supplemented with 10% Hyclone fetal calf serum (Thermofisher Scientific), and antibiotics, and passage 3–5 cells were used for experiment. Cells at 60–80% confluence were differentiated by Phorbol 12-myristate 13-acetate (PMA, Sigma) for 24 hours and then starved overnight without Hyclone fetal calf serum prior to treatment.
RNA was isolated from NHEKs using Purelink RNA isolation columns (ThermoFisher Scientific) according to the manufacturer’s instructions. RNA was quantified using a Nanodrop spectrophotometer (ThermoFisher Scientific), and up to 500 ng of RNA was reverse-transcribed using the iScript cDNA synthesis kit (Bio-Rad, Irvine, CA). Quantitative real-time PCR reactions were run on a CFX96 real-time detection system (Bio-Rad) using gene-specific primers and TaqMan probes (ThermoFisher Scientific). PCR primers and probes are shown on Table S2.

Row | Substance | close association between U1 RNA and SR-B1 (PLA, <40 nm) (SR-B1) | capacity to enable U1 RNA to amplify IFN-β1 or IL-6 expression (THP1 cells)
1 | LL37 | enabled close association | large responses
2 | LLGDFFRKSKEKIGKEFKRIVQRIKDFLRNLVPR [LL34] | enabled close association | large responses
